Reference: patent US10945992B1, “Dosage forms of rofecoxib and related methods” (Tremeau Pharmaceuticals, Inc., priority 2019, dated 2021)
Where two headings read alike, the source gives them in different places.

Test: 101 and 102 PK studies combined (fasted)
Assay type: in vivo
Conditions: human, plasma, oral; for half-life: read-out: median t1/2 (converted)
Excerpt: The primary analysis model for data from this trial included data from this trial and that from the 25-mg dose from TRM-201-PK-101 (fasted results only), which were combined via mixed model repeated measures analysis (MMRM) in order to maximize the precision of the estimates. An MMRM analysis on natural log scale was simulated for the 25-mg dose (N=50) data using the between-subject SD of 0.31 from TRM-201-PK-101 and for the estimated 25-mg and 20-mg data that N=20 subjects were expected to yield in this study. The purpose of this simulation was to estimate the SD for the least squares natural log scale mean for the 20-mg dose. […] The subject effect data expected for this study was simulated from the back-calculated variance of the between-subject mean effect (Var (between-subject-mean)=SDbetween^2−SDwithin^2). For the maximum between- and within-SB's 0.31 and 0.12, 1000 simulations yielded an effective SD of 0.21 for the least squares mean of 20 mg, which was used for the following power calculations.
The arithmetic mean AUC0-∞ for 12.5 mg of TRM-201 is 2010 ng·hr/mL. The geometric mean AUC0-∞ for 12.5 mg of TRM-201 is 1880 ng·hr/mL. The arithmetic mean AUC0-∞ for 17.5 mg of TRM-201 is 3290 ng·hr/mL. The geometric mean AUC0-∞ for 17.5 mg of TRM-201 is 3110 ng·hr/mL. The arithmetic mean AUC0-∞ for 20 mg of TRM-201 is 3750 ng·hr/mL. The geometric mean AUC0-∞ for 20 mg of TRM-201 is 3550 ng·hr/mL. The arithmetic mean AUC0-∞ for 25 mg of TRM-201 is 4810 ng·hr/mL. The geometric mean AUC0-∞ for 25 mg of TRM-201 is 4590 ng·hr/mL.
The median time at which the Cmax is observed (Tmax) for 12.5 mg of TRM-201 is 2.00 hours. The median Tmax for 17.5 mg of TRM-201 is 2.00 hours. The Tmax for 20 mg of TRM-201 is 2.00 hours.

CS(=O)(=O)c1ccc(C2=C(c3ccccc3)C(=O)OC2)cc1 [TRM-201, 4-[4-(methylsulfonyl)phenyl]-3-phenyl-2(5H)-furanone]
AUC(0-inf) (12.5 mg, 101 and 102 studies (FIG. 47), read-out: arithmetic mean AUC0-∞): 2010 ng·h/mL | Cmax (12.5 mg, 101 and 102 studies (FIG. 47), read-out: arithmetic mean Cmax): 151 ng/mL | AUC(0-inf) (12.5 mg, 101 and 102 studies (FIG. 47), read-out: geometric mean AUC0-∞): 1880 ng·h/mL | Cmax (12.5 mg, 101 and 102 studies (FIG. 47), read-out: geometric mean Cmax): 144 ng/mL | half-life (12.5 mg): 12 h | AUC(0-inf) (17.5 mg, 101 and 102 studies (FIG. 47), read-out: arithmetic mean AUC0-∞): 3290 ng·h/mL | Cmax (17.5 mg, 101 and 102 studies (FIG. 47), read-out: arithmetic mean Cmax): 236 ng/mL | AUC(0-inf) (17.5 mg, 101 and 102 studies (FIG. 47), read-out: geometric mean AUC0-∞): 3110 ng·h/mL | Cmax (17.5 mg, 101 and 102 studies (FIG. 47), read-out: geometric mean Cmax): 224 ng/mL | Tmax (17.5 mg, read-out: median Tmax): 2 h | half-life (17.5 mg): 11.7 h | AUC(0-inf) (20 mg, 101 and 102 studies (FIG. 47), read-out: arithmetic mean AUC0-∞): 3750 ng·h/mL | Cmax (20 mg, 101 and 102 studies (FIG. 47), read-out: arithmetic mean Cmax): 277 ng/mL | AUC(0-inf) (20 mg, 101 and 102 studies (FIG. 47), read-out: geometric mean AUC0-∞): 3550 ng·h/mL | Cmax (20 mg, 101 and 102 studies (FIG. 47), read-out: geometric mean Cmax): 259 ng/mL | Tmax (20 mg, read-out: Tmax): 2 h | half-life (20 mg): 12.2 h | AUC(0-inf) (25 mg, 101 and 102 studies combined (FIG. 47), read-out: arithmetic mean AUC0-∞): 4810 ng·h/mL | Cmax (25 mg, 101 and 102 studies combined (FIG. 47), read-out: arithmetic mean Cmax): 336 ng/mL | AUC(0-inf) (25 mg, 101 and 102 studies combined (FIG. 47), read-out: geometric mean AUC0-∞): 4590 ng·h/mL | Cmax (25 mg, 101 and 102 studies combined (FIG. 47), read-out: geometric mean Cmax): 325 ng/mL | Tmax (25 mg, 101 and 102 studies combined, read-out: Tmax): 2.5 h | half-life (25 mg, 101 and 102 studies combined): 11.6 h
